Assay results taken from the NIST ThermoML archive (doi:10.1021/je0340809).

Assay: xn = mol fraction of the nth substance listed
Settings: 101.3 kPa, Liquid

C=CN1CCCC1=O [N-vinylpyrrolidone] + O
Settings	mass density, 318.15 K [kg/m3]	mass density, 328.15 K [kg/m3]	mass density, 338.15 K [kg/m3]	speed of sound, 318.15 K [m/s]	speed of sound, 328.15 K [m/s]	speed of sound, 338.15 K [m/s]	viscosity, 318.15 K [mPa·s]	viscosity, 328.15 K [mPa·s]	viscosity, 338.15 K [mPa·s]
x2 = 0.0557	–	1015.77	1006.93	–	1433	1406	–	2.221	1.807
x2 = 0.1591	–	1016.49	1007.56	–	1441.7	1413.8	–	2.128	1.736
x2 = 0.2543	–	1017.1	1008.1	–	1451.2	1422.3	–	2.042	1.668
x2 = 0.3503	–	1017.56	1008.51	–	1462.3	1432.4	–	1.983	1.624
x2 = 0.4525	–	1018.03	1008.92	–	1474.7	1444.1	–	1.975	1.621
x2 = 0.5028	–	1018.3	1009.15	–	1482.4	1451.3	–	1.993	1.639
x2 = 0.5539	–	1018.58	1009.4	–	1489.6	1458.3	–	2.025	1.667
x2 = 0.6546	–	1018.91	1009.7	–	1505.7	1474.6	–	2.096	1.73
x2 = 0.7505	–	1018	1008.9	–	1523.4	1493.7	–	2.103	1.739
x2 = 0.8519	–	1013.18	1004.69	–	1542.9	1517.9	2.249	1.876	1.557
x2 = 0.8751	1019.1	1011.04	1002.82	1579.4	1548.6	1525.2	2.115	1.763	1.466
x2 = 0.8852	1017.84	1009.94	1001.85	1580.1	1550.7	1528.2	2.046	1.705	1.42
x2 = 0.9001	1015.73	1008.09	1000.23	1580.9	1553.7	1532.8	1.929	1.609	1.34
x2 = 0.9251	1011.41	1004.31	996.917	1577.9	1556.2	1539.1	1.692	1.411	1.18
x2 = 0.9357	1009.25	1002.41	995.252	1575.3	1556.5	1541.5	1.576	1.314	1.1
x2 = 0.9554	1004.59	998.333	991.671	1567.9	1556.6	1545.5	1.326	1.108	0.931
x2 = 0.9649	1002.02	996.075	989.687	1562.9	1554.4	1547	1.191	0.995	0.84
x2 = 0.9749	999.05	993.467	987.393	1556.6	1552.6	1548.4	1.037	0.868	0.736
x2 = 0.9903	993.883	988.924	983.396	1544.4	1548.5	1550.2	0.776	0.652	0.56
